Laboratory results: patent US11021493B2, “1,4-thiazine dioxide and 1,2,4-thiadiazine dioxide derivatives as beta-secretase inhibitors and methods of use” (AMGEN INC., priority 2016, dated 2021)

Columns and labels:
human recombinant BACE2 = human recombinant BACE2 (Homo sapiens (Human), UniProt Q9Y5Z0); experiment: In vitro enzymatic BACE2 FRET assay; type: biochemical; details: read-out: BACE2 Enzyme IC50
Cathepsin D (CatD) = Cathepsin D (CatD) (Homo sapiens (Human), UniProt P07339); experiment: In vitro enzymatic Cathepsin D (CatD) FRET assay; type: biochemical; details: read-out: Cat D Enzyme IC50
BACE1 [1] = molecular target: T1, BACE1 (Homo sapiens (Human), UniProt P56817); experiment: In vitro BACE1 cell-based assay (Aβ40 in conditioned medium of cells stably expressing APP, HTRF); details: Aβ40 in conditioned media after 24 h incubation
Target sequence in this assay (P56817 46-501, species assumed): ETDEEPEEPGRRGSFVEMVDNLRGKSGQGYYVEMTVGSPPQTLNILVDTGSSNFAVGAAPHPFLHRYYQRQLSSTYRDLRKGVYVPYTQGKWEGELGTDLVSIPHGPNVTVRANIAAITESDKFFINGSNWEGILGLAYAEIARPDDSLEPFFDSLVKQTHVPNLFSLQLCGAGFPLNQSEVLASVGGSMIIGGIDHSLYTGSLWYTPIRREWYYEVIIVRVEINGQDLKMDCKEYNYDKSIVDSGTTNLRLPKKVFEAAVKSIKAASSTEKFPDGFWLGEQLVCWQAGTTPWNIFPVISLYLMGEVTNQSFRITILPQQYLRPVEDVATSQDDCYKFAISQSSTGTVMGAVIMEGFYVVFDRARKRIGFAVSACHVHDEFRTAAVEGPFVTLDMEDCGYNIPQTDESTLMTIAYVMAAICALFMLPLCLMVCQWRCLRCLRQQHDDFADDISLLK

BACE1 [2] = molecular target: T1, BACE1; experiment: In vitro enzymatic BACE1 FRET assay; type: biochemical; details: read-out: BACE1 Enzyme IC50
Target sequence in this assay (P56817 46-501): as the sequence (P56817 46-501, species assumed) above

Sequence of Cathepsin D (CatD) (P07339 65-412, species assumed): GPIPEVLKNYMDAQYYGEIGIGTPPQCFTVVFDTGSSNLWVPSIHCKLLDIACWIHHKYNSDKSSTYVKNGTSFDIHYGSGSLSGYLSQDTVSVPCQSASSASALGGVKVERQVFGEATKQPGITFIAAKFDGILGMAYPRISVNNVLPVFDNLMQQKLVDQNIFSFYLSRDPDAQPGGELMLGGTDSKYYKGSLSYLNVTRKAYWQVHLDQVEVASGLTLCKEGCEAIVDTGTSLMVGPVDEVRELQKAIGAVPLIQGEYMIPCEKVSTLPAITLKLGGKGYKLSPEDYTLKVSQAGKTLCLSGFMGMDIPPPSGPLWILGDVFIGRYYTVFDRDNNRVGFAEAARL
Sequence of human recombinant BACE2 (Q9Y5Z0 63-518): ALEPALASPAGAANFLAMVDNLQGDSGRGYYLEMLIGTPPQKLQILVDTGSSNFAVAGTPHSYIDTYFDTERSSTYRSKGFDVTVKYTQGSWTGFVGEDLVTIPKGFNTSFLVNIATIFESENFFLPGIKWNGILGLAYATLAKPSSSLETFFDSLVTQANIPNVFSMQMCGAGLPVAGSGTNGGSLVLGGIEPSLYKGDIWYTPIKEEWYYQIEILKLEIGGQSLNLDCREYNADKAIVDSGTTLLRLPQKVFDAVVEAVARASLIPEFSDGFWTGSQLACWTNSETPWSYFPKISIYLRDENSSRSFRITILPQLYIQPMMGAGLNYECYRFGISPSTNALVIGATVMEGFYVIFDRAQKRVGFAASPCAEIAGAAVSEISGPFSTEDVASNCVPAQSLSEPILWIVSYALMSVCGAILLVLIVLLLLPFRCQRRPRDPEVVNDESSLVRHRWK

| Compound | IC50 (human recombinant BACE2) [nM] | IC50 (Cathepsin D (CatD)) [µM] | IC50 (BACE1 [1]) [nM] | IC50 (BACE1 [2]) [nM] |
| --- | --- | --- | --- | --- |
| CN1C(N)=N[C@](C)(c2cc(/C=C(\F)c3ccc(Br)cn3)cc(F)c2F)CS1(=O)=O [Example 105, (R,Z)-3-amino-5-(5-(2-(5-bromopyridin-2-yl)-2-fluorovinyl)-2,3-difluorophenyl)-2,5-dimethyl-5,6-dihydro-2H-1,2,4-thiadiazine 1,1-dioxide] | 9 | 35.8 | 23 | 12 |
| C#CCOc1cnc(/C(F)=C/c2ccc(F)c([C@]3(C)CS(=O)(=O)C4(CCC4)C(N)=N3)c2)cn1 [Example 149, (R,Z)-9-amino-7-(2-fluoro-5-(2-fluoro-2-(5-(prop-2-yn-1-yloxy)pyrazin-2-yl)vinyl)phenyl)-7-methyl-5-thia-8-azaspiro[3.5]non-8-ene 5,5-dioxide] | 51 | 110 | 3 | 2 |
| CCCOc1cnc(/C(F)=C/c2ccc(F)c([C@@]3(C)N=C(N)[C@@]4(CF)CC[C@@H]3S4(=O)=O)c2)cn1 [Example 135, (1R,4R,5S)-2-amino-4-(2-fluoro-5-((Z)-2-fluoro-2-(5-propoxypyrazin-2-yl)vinyl)phenyl)-1-(fluoromethyl)-4-methyl-8-thia-3-azabicyclo[3.2.1]oct-2-ene 8,8-dioxide] | 120 | > 400 | 866 | 86 |
| C#C[C@@H](CC)Oc1cnc(/C(F)=C/c2ccc(F)c([C@]3(C)CS(=O)(=O)C(C)(C)C(N)=N3)c2)cn1 (single isomer, unassigned) [Example 177] | 101 | 61.4 | 600 | 208 |
| C[C@@]1(c2cc(/C=C(\F)c3ccc(Cl)cn3)ccc2F)CS(=O)(=O)C2(CCC2)C(N)=N1 [Example 100, (R,Z)-9-amino-7-(5-(2-(5-chloropyridin-2-yl)-2-fluorovinyl)-2-fluorophenyl)-7-methyl-5-thia-8-azaspiro[3.5]non-8-ene 5,5-dioxide] | 7 | 91 | 472 | 10 |
| CN1C(N)=N[C@](C)(c2cc(/C=C(\F)c3ccc(Cl)cn3)cc(F)c2F)CS1(=O)=O [Example 152, (R,Z)-3-amino-5-(5-(2-(5-chloropyridin-2-yl)-2-fluorovinyl)-2,3-difluorophenyl)-2,5-dimethyl-5,6-dihydro-2H-1,2,4-thiadiazine 1,1-dioxide] | 6 | 48.8 | 47 | 15 |
| CN1C(N)=N[C@](C)(c2cc(/C=C(\F)c3ccc4c(c3)OCCO4)ccc2F)CS1(=O)=O [Example 196, (R,Z)-3-amino-5-(5-(2-(2,3-dihydrobenzo[b][1,4]dioxin-6-yl)-2-fluorovinyl)-2-fluorophenyl)-2,5-dimethyl-5,6-dihydro-2H-1,2,4-thiadiazine 1,1-dioxide] | 157 | 56.1 | 1080 | 583 |
| CN1C(N)=N[C@](C)(c2cc(/C=C(\F)c3cnc(OCC(F)(F)F)cn3)ccc2F)CS1(=O)=O [Example 117, (R,Z)-3-amino-5-(2-fluoro-5-(2-fluoro-2-(5-(2,2,2-trifluoroethoxy)pyrazin-2-yl)vinyl)phenyl)-2,5-dimethyl-5,6-dihydro-2H-1,2,4-thiadiazine 1,1-dioxide] | 186 | 29.1 | 148 | 23 |
| CC1(C)C(N)=N[C@](C)(c2cc(/C=C(\F)c3cnc(OCC4CCC4)cn3)ccc2F)CS1(=O)=O [Example 145, (R,Z)-5-amino-3-(5-(2-(5-(cyclobutylmethoxy)pyrazin-2-yl)-2-fluorovinyl)-2-fluorophenyl)-3,6,6-trimethyl-3,6-dihydro-2H-1,4-thiazine 1,1-dioxide] | 107 | 27.5 | 518 | 58 |
| CC1(C)C(N)=N[C@](C)(c2cc(/C=C(\F)c3cnc(Oc4ccccc4)cn3)ccc2F)CS1(=O)=O [Example 211, (R,Z)-5-amino-3-(2-fluoro-5-(2-fluoro-2-(5-phenoxypyrazin-2-yl)vinyl)phenyl)-3,6,6-trimethyl-3,6-dihydro-2H-1,4-thiazine 1,1-dioxide] | 333 | 59.5 | 1820 | 349 |
| CC#C[C@H](CC)Oc1cnc(/C(F)=C/c2ccc(F)c([C@]3(C)CS(=O)(=O)C(C)(C)C(N)=N3)c2)cn1 (single isomer, unassigned) [Example 199] | 102 | 51.2 | 2 | 4 |
| Cc1noc(COc2cnc(/C(F)=C/c3ccc(F)c([C@@]4(C)N=C(N)N(C)S(=O)(=O)C45CC5)c3)cn2)n1 [Example 161, (8R)-8-(2-fluoro-5-((Z)-2-fluoro-2-(5-((3-methyl-1,2,4-oxadiazol-5-yl)methoxy)-2-pyrazinyl)ethenyl)phenyl)-5,8-dimethyl-4-thia-5,7-diazaspiro[2.5]oct-6-en-6-amine 4,4-dioxide] | 2630 | 59.6 | 48 | 80 |
| CN1C(N)=N[C@](C)(c2cc(/C=C(\F)c3ccc(Cl)cn3)ccc2F)CS1(=O)=O [Example 104, (R,Z)-3-amino-5-(5-(2-(5-chloropyridin-2-yl)-2-fluorovinyl)-2-fluorophenyl)-2,5-dimethyl-5,6-dihydro-2H-1,2,4-thiadiazine 1,1-dioxide] | 2 | 95 | 24 | 3 |
| CC1(C)C(N)=N[C@](C)(c2cc(/C=C(\F)c3cnc(OCC4CCCC4)cn3)ccc2F)CS1(=O)=O [Example 144, (R,Z)-5-amino-3-(5-(2-(5-(cyclopentylmethoxy)pyrazin-2-yl)-2-fluorovinyl)-2-fluorophenyl)-3,6,6-trimethyl-3,6-dihydro-2H-1,4-thiazine 1,1-dioxide] | 143 | 17 | 1070 | 30 |
| CN1C(N)=N[C@](C)(c2cc(/C=C(\F)c3cnc(Cl)cn3)ccc2F)C2(CC2)S1(=O)=O [Example 139, (8R)-8-(5-((Z)-2-(5-chloro-2-pyrazinyl)-2-fluoroethenyl)-2-fluorophenyl)-5,8-dimethyl-4-thia-5,7-diazaspiro[2.5]oct-6-en-6-amine 4,4-dioxide] | 70 | 428 | 198 | 49 |

Second part, the compound after the results:

| IC50 (human recombinant BACE2) [nM] | IC50 (Cathepsin D (CatD)) [µM] | IC50 (BACE1 [1]) [nM] | IC50 (BACE1 [2]) [nM] | Compound |
| --- | --- | --- | --- | --- |
| 143 | 329 | 1020 | 530 | CN1C(N)=N[C@](C)(c2cc(/C=C(\F)c3cc4c(cn3)OCCC4)ccc2F)CS1(=O)=O [Example 239, (5R)-5-(5-((Z)-2-(3,4-dihydro-2H-pyrano[2,3-c]pyridin-6-yl)-2-fluoroethenyl)-2-fluorophenyl)-2,5-dimethyl-5,6-dihydro-2H-1,2,4-thiadiazin-3-amine 1,1-dioxide] |
| 46 | 76.2 | 13 | 7 | CN1C(N)=N[C@](C)(c2cc(/C=C(\F)c3ccc(C(F)(F)F)cn3)cc(F)c2F)CS1(=O)=O [Example 273, (R,Z)-3-amino-5-(2,3-difluoro-5-(2-fluoro-2-(5-(trifluoromethyl)pyridin-2-yl)vinyl)phenyl)-2,5-dimethyl-5,6-dihydro-2H-1,2,4-thiadiazine 1,1-dioxide] |
| 28 | 265 | 138 | 75 | CN1C(N)=N[C@](C)(c2cc(/C=C(\F)c3ccc(F)cn3)cc(F)c2F)CS1(=O)=O [Example 270, (R,Z)-3-amino-5-(2,3-difluoro-5-(2-fluoro-2-(5-fluoropyridin-2-yl)vinyl)phenyl)-2,5-dimethyl-5,6-dihydro-2H-1,2,4-thiadiazine 1,1-dioxide] |
| 10 | 99.9 | 26 | 5 | CN1C(N)=N[C@](C)(c2cc(/C=C(\F)c3ncc(C(F)(F)F)cc3Cl)ccc2F)CS1(=O)=O [Example 242, (5R)-5-(5-((Z)-2-(3-chloro-5-(trifluoromethyl)-2-pyridinyl)-2-fluoroethenyl)-2-fluorophenyl)-2,5-dimethyl-5,6-dihydro-2H-1,2,4-thiadiazin-3-amine 1,1-dioxide] |
| 31 | 206 | 8 | 6 | CN1C(N)=N[C@](C)(c2cc(/C=C(\F)c3ccc(C(F)(F)F)cn3)ccc2F)CS1(=O)=O [Example 244, (5R)-5-(2-fluoro-5-((Z)-2-fluoro-2-(5-(trifluoromethyl)-2-pyridinyl)ethenyl)phenyl)-2,5-dimethyl-5,6-dihydro-2H-1,2,4-thiadiazin-3-amine 1,1-dioxide] |
| 851 | 303 | 5940 | 225 | CC1(C)C(N)=N[C@](C)(c2cc(/C=C(\F)c3cc4c(cn3)OCCO4)ccc2F)[C@H](F)S1(=O)=O (single isomer, unassigned) [Example 214] |
| 235 | 237 | 102 | 207 | CN1C(N)=N[C@](C)(c2cc(/C=C(\F)c3cc4c(cn3)OCO4)ccc2F)CS1(=O)=O [Example 257, (5R)-5-(5-((Z)-2-([1,3]dioxolo[4,5-c]pyridin-6-yl)-2-fluoroethenyl)-2-fluorophenyl)-2,5-dimethyl-5,6-dihydro-2H-1,2,4-thiadiazin-3-amine 1,1-dioxide] |
| 11 | 108 | 180 | 47 | CC1(C)C(N)=N[C@](C)(c2cc(/C=C(\F)c3ccc(F)cn3)ccc2F)CS1(=O)=O [Example 262, (R,Z)-5-amino-3-(2-fluoro-5-(2-fluoro-2-(5-fluoropyridin-2-yl)vinyl)phenyl)-3,6,6-trimethyl-3,6-dihydro-2H-1,4-thiazine 1,1-dioxide] |
| 683 | 172 | 3580 | 626 | CC1(C)C(N)=N[C@](C)(c2cc(/C=C(\F)c3cc4c(cn3)OCCO4)ccc2F)[C@@H](F)S1(=O)=O (single isomer, unassigned) [Example 213] |
